Data: paper PMC8854719, “Phase 1A/1B dose-escalation and -expansion study to evaluate the safety, pharmacokinetics, food effects and antitumor activity of pamiparib in advanced solid tumours” (British Journal of Cancer, 2021)
“Also recorded” adds a separate entry of the source. Marks after values point to notes of the source that are not given here.

Experiment: Safety and tolerability: adverse events, dose-limiting toxicities, MTD, RP2D (Phase 1A/1B)
Assay type: in vivo
Procedure: This was an open-label, Phase 1, dose-escalation/dose-expansion study, conducted across six study centres in Australia. The dose-escalation phase evaluated twice-daily (BID) and once-daily (QD) dosing, and the dose-expansion phase evaluated the BID RP2D from the dose-escalation phase and food effects (Fig. 1). The food-effects cohort comprised two sequences: fast followed by fed (sequence 1) and fed followed by fast (sequence 2). […] The decision to proceed to the next dose cohort was determined by the Safety Monitoring Committee and followed a modified 3 + 3 escalation scheme. […] When ≥2 DLTs occurred in the first 23 days of a dose level, the next lower dose level was declared the MTD. Safety was monitored and DLTs were assessed in all dose cohorts. […] The food-effects cohort investigated the effects of food on the PK of pamiparib in patients with advanced solid tumours.
The QD dosing regimen was added as an amendment to the protocol with the purpose of exploring the feasibility of a more convenient regimen.
Safety and tolerability were assessed throughout the study by monitoring adverse events (AEs), serious AEs, clinical laboratory measurements and physical examinations. Adverse events were categorised according to their severity (National Cancer Institute Common Terminology Criteria for Adverse Events v4.03) and relationship to the study treatment.

## C[C@]12CCCN1CC1=NNC(=O)c3cc(F)cc4[nH]c2c1c34 [pamiparib]
80 mg BID (n = 10)
  Ascites, AE of any grade: 1 (10.0) n (%)
  Back pain, AE of any grade: 0 (0.0) n (%)
  Constipation, AE of any grade: 4 (40.0) n (%)
  Cough, AE of any grade: 1 (10.0) n (%)
  Decreased appetite, AE of any grade: 2 (20.0) n (%)
  Diarrhoea, AE of any grade: 1 (10.0) n (%)
  Dose-limiting toxicity: 1 (10.0)^b n (%)
  Dyspnoea, AE of any grade: 0 (0.0) n (%)
  Fatigue, AE of any grade: 4 (40.0) n (%)
  Headache, AE of any grade: 0 (0.0) n (%)
  Hypoalbuminemia, AE of any grade: 0 (0.0) n (%)
  Hypomagnesemia, AE of any grade: 2 (20.0) n (%)
  Hypophosphatemia, AE of any grade: 0 (0.0) n (%)
  Increased AST, AE of any grade: 0 (0.0) n (%)
  Muscle spasms, AE of any grade: 1 (10.0) n (%)
  Nausea, AE of any grade: 8 (80.0) n (%)
  Neutropenia, AE of any grade: 3 (30.0) n (%)
  Non-cardiac chest pain, AE of any grade: 1 (10.0) n (%)
  Pain in extremity, AE of any grade: 0 (0.0) n (%)
  Peripheral sensory neuropathy, AE of any grade: 0 (0.0) n (%)
  Pleural effusion, AE of any grade: 0 (0.0) n (%)
  Pyrexia, AE of any grade: 1 (10.0) n (%)
  Treatment-emergent AE: 10 (100.0) n (%)
  Treatment-emergent AE: Grade 3 or higher: 4 (40.0) n (%)
  Treatment-emergent AE: Leading to death: 1 (10.0) n (%)
  Treatment-emergent AE: Leading to dose interruption: 5 (50.0) n (%)
  Treatment-emergent AE: Leading to dose modification: 5 (50.0) n (%)
  Treatment-emergent AE: Leading to dose reduction: 1 (10.0) n (%)
  Treatment-emergent AE: Leading to treatment discontinuation: 0 (0.0) n (%)
  Treatment-emergent AE: Serious: 3 (30.0) n (%)
  Treatment-related AE: 9 (90.0) n (%)
  Treatment-related AE: Grade 3 or higher: 3 (30.0) n (%)
  Treatment-related AE: Leading to death: 0 (0.0) n (%)
  Treatment-related AE: Leading to dose interruption: 5 (50.0) n (%)
  Treatment-related AE: Leading to dose modification: 5 (50.0) n (%)
  Treatment-related AE: Leading to dose reduction: 1 (10.0) n (%)
  Treatment-related AE: Leading to treatment discontinuation: 0 (0.0) n (%)
  Treatment-related AE: Serious: 1 (10.0) n (%)
  Upper respiratory tract infection, AE of any grade: 5 (50.0) n (%)
  Urinary tract infection, AE of any grade: 2 (20.0) n (%)
  Vomiting, AE of any grade: 2 (20.0) n (%)
80 mg BID, n = 1
  Dose-limiting toxicities observed (description): Grade 2 nausea
120 mg BID (n = 5)
  Abdominal pain, AE of any grade: 0 (0.0) n (%)
  Anaemia, AE of any grade: 3 (60.0) n (%)
  Ascites, AE of any grade: 0 (0.0) n (%)
  Back pain, AE of any grade: 1 (20.0) n (%)
  Constipation, AE of any grade: 0 (0.0) n (%)
  Cough, AE of any grade: 1 (20.0) n (%)
  Decreased appetite, AE of any grade: 2 (40.0) n (%)
  Diarrhoea, AE of any grade: 2 (40.0) n (%)
  Dose-limiting toxicity: 2 (40.0)^c n (%)
  Dyspnoea, AE of any grade: 0 (0.0) n (%)
  Fatigue, AE of any grade: 2 (40.0) n (%)
  Headache, AE of any grade: 0 (0.0) n (%)
  Hypoalbuminemia, AE of any grade: 0 (0.0) n (%)
  Hypomagnesemia, AE of any grade: 0 (0.0) n (%)
  Hypophosphatemia, AE of any grade: 1 (20.0) n (%)
  Increased AST, AE of any grade: 1 (20.0) n (%)
  Muscle spasms, AE of any grade: 0 (0.0) n (%)
  Nausea, AE of any grade: 4 (80.0) n (%)
  Neutropenia, AE of any grade: 1 (20.0) n (%)
  Non-cardiac chest pain, AE of any grade: 1 (20.0) n (%)
  Pain in extremity, AE of any grade: 1 (20.0) n (%)
  Peripheral sensory neuropathy, AE of any grade: 0 (0.0) n (%)
  Pleural effusion, AE of any grade: 1 (20.0) n (%)
  Pyrexia, AE of any grade: 1 (20.0) n (%)
  Treatment-emergent AE: 5 (100.0) n (%)
  Treatment-emergent AE: Grade 3 or higher: 5 (100.0) n (%)
  Treatment-emergent AE: Leading to death: 0 (0.0) n (%)
  Treatment-emergent AE: Leading to dose interruption: 4 (80.0) n (%)
  Treatment-emergent AE: Leading to dose modification: 4 (80.0) n (%)
  Treatment-emergent AE: Leading to dose reduction: 1 (20.0) n (%)
  Treatment-emergent AE: Leading to treatment discontinuation: 2 (40.0) n (%)
  Treatment-emergent AE: Serious: 3 (60.0) n (%)
  Treatment-related AE: 5 (100.0) n (%)
  Treatment-related AE: Grade 3 or higher: 3 (60.0) n (%)
  Treatment-related AE: Leading to death: 0 (0.0) n (%)
  Treatment-related AE: Leading to dose interruption: 3 (60.0) n (%)
  Treatment-related AE: Leading to dose modification: 3 (60.0) n (%)
  Treatment-related AE: Leading to dose reduction: 1 (20.0) n (%)
  Treatment-related AE: Leading to treatment discontinuation: 2 (40.0) n (%)
  Treatment-related AE: Serious: 1 (20.0) n (%)
  Upper respiratory tract infection, AE of any grade: 0 (0.0) n (%)
  Urinary tract infection, AE of any grade: 2 (40.0) n (%)
  Vomiting, AE of any grade: 1 (20.0) n (%)
120 mg BID, two patients, n = 1 each
  Dose-limiting toxicities observed (description): Grade 2 nausea, grade 3 fatigue, and grade 3 paresthesia; also recorded: Grade 2 nausea and Grade 2 anorexia; also recorded: Grade 2 nausea, Grade 3 fatigue and Grade 3 paraesthesia
120 mg QD
  Diarrhea, AE: 50.0%
  Fatigue, AE: 75.0%
  Nausea, AE: 50.0%
120 mg QD (n=8)
  Dose-limiting toxicity: 0 (0.0) n (%)
  Treatment-emergent AE: 8 (100.0) n (%)
  Treatment-emergent AE: Grade 3 or higher: 5 (62.5) n (%)
  Treatment-emergent AE: Leading to death: 0 (0.0) n (%)
  Treatment-emergent AE: Leading to dose interruption: 6 (75.0) n (%)
  Treatment-emergent AE: Leading to dose modification: 6 (75.0) n (%)
  Treatment-emergent AE: Leading to dose reduction: 1 (12.5) n (%)
  Treatment-emergent AE: Leading to treatment discontinuation: 0 (0.0) n (%)
  Treatment-emergent AE: Serious: 2 (25.0) n (%)
  Treatment-related AE: 6 (75.0) n (%)
  Treatment-related AE: Grade 3 or higher: 3 (37.5) n (%)
  Treatment-related AE: Leading to death: 0 (0.0) n (%)
  Treatment-related AE: Leading to dose interruption: 4 (50.0) n (%)
  Treatment-related AE: Leading to dose modification: 4 (50.0) n (%)
  Treatment-related AE: Leading to dose reduction: 1 (12.5) n (%)
  Treatment-related AE: Leading to treatment discontinuation: 0 (0.0) n (%)
  Treatment-related AE: Serious: 0 (0.0) n (%)
160 mg QD
  Diarrhea, AE: 45.5%
  Fatigue, AE: 63.6%
  Nausea, AE: 90.9%
160 mg QD (n=11)
  Dose-limiting toxicity: 1 (9.1)^d n (%)
  Treatment-emergent AE: 11 (100.0) n (%)
  Treatment-emergent AE: Grade 3 or higher: 9 (81.8) n (%)
  Treatment-emergent AE: Leading to death: 0 (0.0) n (%)
  Treatment-emergent AE: Leading to dose interruption: 7 (63.6) n (%)
  Treatment-emergent AE: Leading to dose modification: 7 (63.6) n (%)
  Treatment-emergent AE: Leading to dose reduction: 0 (0.0) n (%)
  Treatment-emergent AE: Leading to treatment discontinuation: 2 (18.2) n (%)
  Treatment-emergent AE: Serious: 4 (36.4) n (%)
  Treatment-related AE: 11 (100.0) n (%)
  Treatment-related AE: Grade 3 or higher: 7 (63.6) n (%)
  Treatment-related AE: Leading to death: 0 (0.0) n (%)
  Treatment-related AE: Leading to dose interruption: 7 (63.6) n (%)
  Treatment-related AE: Leading to dose modification: 7 (63.6) n (%)
  Treatment-related AE: Leading to dose reduction: 0 (0.0) n (%)
  Treatment-related AE: Leading to treatment discontinuation: 2 (18.2) n (%)
  Treatment-related AE: Serious: 1 (9.1) n (%)
160 mg QD, one of 11
  Patients who experienced a DLT: 9%
160 mg QD, one patient
  Dose-limiting toxicities observed (description): grade 2 nausea
101 patients
  Serious AE: anemia: 4.0%
  Serious AE: intestinal obstruction: 4.0%
  Serious AE: malignant gastrointestinal obstruction: 3.0%
